Values quoted from earlier work as cited in patent publication US6391860B1, “Method for preparation and use of paste formed by controlled reaction of sucralfate with hydrochloric acid” (priority 1999, dated 2002).

- solubility in most polar and non-polar solvents: insoluble
- solubility in strong acid and strong alkali: soluble
Substance: aluminum hydroxide salt of sucrose octasulfate [Sucralfate]
